Results on two compounds are retold here after patent publication US20110201016A1, “METHOD FOR DETECTING MODULATOR FOR REGULATING ACTIVITY OF CELLULAR COMPONENT IN CELL” (MEDISCOV INC., priority 2010, published 2011).

Test [1] deals with ABL2. Nature of the test: Competition reaction with dasatinib-magnetic substance for EGFP-labelled kinase in cells. The following applies: EGFP-ABL2 in HeLa cells; 10 μM reactive competitor for 30 minutes to 2 hours.
Test [2] addresses T1, LYN (Homo sapiens, UniProt P07948, G2A).
T1 construct: the ORF without the stop codon was amplified for each gene by PCR; expressed in transfected cells; host or cells: HeLa
In words: Binding of dasatinib-magnetic substance to EGFP-labelled kinase in cells (magnetic pattern co-localization). In kind it is cell-based. The conditions noted are these: LYN-EGFP (G2A) in HeLa cells; dasatinib-biotin coated on streptavidin magnetic substance; magnetic field. The source says: (§1) Bioconjug. […] Adv. Mater. […] J. Am. Chem. Soc. 130, 16466].
(§2) J. Am. Chem. Soc. 130, 16466].
(§3) Nature 255: 706]. […] J. Am. Chem. Soc. 130, 16466].
(§4) The result is illustrated in FIG. 2.

The target in test [3] is T2, RIPK2 (Homo sapiens, UniProt O43353).
T2 construct: the ORF without the stop codon was amplified for each gene by PCR; expressed in transfected cells; host or cells: HeLa
T2 sequence (O43353 whole entry): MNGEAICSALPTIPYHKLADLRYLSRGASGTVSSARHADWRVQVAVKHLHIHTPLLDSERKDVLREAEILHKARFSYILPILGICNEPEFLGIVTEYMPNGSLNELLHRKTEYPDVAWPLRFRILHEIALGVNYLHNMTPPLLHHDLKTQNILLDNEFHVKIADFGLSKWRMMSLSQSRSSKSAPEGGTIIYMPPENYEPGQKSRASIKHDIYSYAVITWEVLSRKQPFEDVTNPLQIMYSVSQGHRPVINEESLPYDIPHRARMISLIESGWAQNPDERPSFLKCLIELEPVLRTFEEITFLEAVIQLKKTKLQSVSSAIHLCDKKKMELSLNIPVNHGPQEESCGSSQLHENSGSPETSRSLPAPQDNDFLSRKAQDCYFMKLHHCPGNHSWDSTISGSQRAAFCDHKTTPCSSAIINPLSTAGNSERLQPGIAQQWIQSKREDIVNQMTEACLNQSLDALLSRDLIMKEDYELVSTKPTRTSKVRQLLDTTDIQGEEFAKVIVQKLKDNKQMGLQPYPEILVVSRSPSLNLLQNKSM
The test is described as above. In kind it is cell-based. The conditions noted are these: RIPK2-EGFP in HeLa cells; dasatinib-biotin coated on streptavidin magnetic substance; magnetic field.
Excerpt: as §1, §2, §3, §4

Test [4] concerns the target T3, BLK (Homo sapiens, UniProt P51451, G2A).
T3 construct: the ORF without the stop codon was amplified for each gene by PCR; expressed in transfected cells; host or cells: HeLa
The description is as above. In kind it is cell-based. The following applies: BLK-EGFP (G2A) in HeLa cells; dasatinib-biotin coated on streptavidin magnetic substance; magnetic field.
Excerpt: as §1, §2, §3, §4

The target in test [5] is T4, CSK (Homo sapiens, UniProt P41240). In words: Competition reaction with dasatinib-magnetic substance for EGFP-labelled kinase in cells. The conditions noted are these: CSK-EGFP in HeLa cells; 10 μM reactive competitor for 30 minutes to 2 hours.
T4 sequence (P41240 whole entry): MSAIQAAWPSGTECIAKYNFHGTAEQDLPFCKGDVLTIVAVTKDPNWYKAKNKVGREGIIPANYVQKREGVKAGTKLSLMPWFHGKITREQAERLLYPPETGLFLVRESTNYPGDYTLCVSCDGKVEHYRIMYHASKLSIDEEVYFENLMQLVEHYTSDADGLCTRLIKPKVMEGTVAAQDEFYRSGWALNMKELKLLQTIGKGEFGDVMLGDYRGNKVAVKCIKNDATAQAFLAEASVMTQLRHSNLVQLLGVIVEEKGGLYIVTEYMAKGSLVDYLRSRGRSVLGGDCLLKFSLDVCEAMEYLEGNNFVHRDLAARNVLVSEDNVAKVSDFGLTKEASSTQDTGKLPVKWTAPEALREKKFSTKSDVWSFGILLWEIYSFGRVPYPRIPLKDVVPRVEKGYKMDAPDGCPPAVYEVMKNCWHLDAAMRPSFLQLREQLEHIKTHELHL
For test [6], the target named is T2, RIPK2. The description is as above. Type of test: cell-based. The following applies: RIPK2-EGFP in HeLa cells; 10 μM reactive competitor for 30 minutes to 2 hours.
Test [7] concerns the target T3, BLK. The test is described as above. In kind it is cell-based. The conditions noted are these: BLK-EGFP in HeLa cells; 10 μM reactive competitor for 30 minutes to 2 hours.
In test [8] the target is T5, SNF1LK (Homo sapiens, UniProt P57059).
T5 construct: the ORF without the stop codon was amplified for each gene by PCR and then cloned into an expression vector; expressed in transfected cells; host or cells: HeLa
T5 sequence (P57059 whole entry): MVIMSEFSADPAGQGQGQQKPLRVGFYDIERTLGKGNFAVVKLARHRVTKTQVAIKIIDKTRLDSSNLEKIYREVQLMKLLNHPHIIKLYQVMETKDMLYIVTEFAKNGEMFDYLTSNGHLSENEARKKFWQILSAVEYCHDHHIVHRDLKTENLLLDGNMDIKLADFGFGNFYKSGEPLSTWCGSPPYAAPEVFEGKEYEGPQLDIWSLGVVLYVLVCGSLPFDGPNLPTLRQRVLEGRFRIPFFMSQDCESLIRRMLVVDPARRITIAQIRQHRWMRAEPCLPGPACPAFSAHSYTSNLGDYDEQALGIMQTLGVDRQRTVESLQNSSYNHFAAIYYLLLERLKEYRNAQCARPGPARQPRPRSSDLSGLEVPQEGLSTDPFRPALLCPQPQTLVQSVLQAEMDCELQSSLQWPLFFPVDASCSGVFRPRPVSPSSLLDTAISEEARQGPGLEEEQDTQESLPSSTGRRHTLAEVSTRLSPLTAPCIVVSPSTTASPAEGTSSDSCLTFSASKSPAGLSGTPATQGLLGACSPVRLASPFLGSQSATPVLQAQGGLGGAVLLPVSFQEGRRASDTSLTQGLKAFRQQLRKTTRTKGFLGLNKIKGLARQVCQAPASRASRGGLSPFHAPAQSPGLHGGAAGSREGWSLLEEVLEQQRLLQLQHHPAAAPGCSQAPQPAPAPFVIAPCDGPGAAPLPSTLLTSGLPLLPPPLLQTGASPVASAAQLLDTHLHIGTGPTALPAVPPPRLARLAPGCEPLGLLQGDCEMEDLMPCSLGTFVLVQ
In words: Binding of dasatinib-magnetic substance to EGFP-labelled kinase in cells (magnetic pattern co-localization). Type of test: cell-based. The following applies: SNF1LK-EGFP in HeLa cells; dasatinib on magnetic substance; no reactive competitor.
Excerpt: as §1, §2, §3

In test [9] the target is T6, FGR (Homo sapiens, UniProt P09769, G2A). In words: Competition reaction with dasatinib-magnetic substance for EGFP-labelled kinase in cells. The conditions noted are these: FGR-EGFP in HeLa cells; 10 μM reactive competitor for 30 minutes to 2 hours.
In test [10] the test system is ABL2. Nature of the test: Binding of dasatinib-magnetic substance to EGFP-labelled kinase in cells (magnetic pattern co-localization). The conditions noted are these: EGFP-ABL2 in HeLa cells; dasatinib-biotin coated on streptavidin magnetic substance; magnetic field.
For the next test, the target named is T7, KIT (Homo sapiens, UniProt P10721).
T7 construct: only the region of the amino acids 545 to 976 was amplified by PCR; expressed in transfected cells; host or cells: HeLa
T7 sequence (P10721 545-976): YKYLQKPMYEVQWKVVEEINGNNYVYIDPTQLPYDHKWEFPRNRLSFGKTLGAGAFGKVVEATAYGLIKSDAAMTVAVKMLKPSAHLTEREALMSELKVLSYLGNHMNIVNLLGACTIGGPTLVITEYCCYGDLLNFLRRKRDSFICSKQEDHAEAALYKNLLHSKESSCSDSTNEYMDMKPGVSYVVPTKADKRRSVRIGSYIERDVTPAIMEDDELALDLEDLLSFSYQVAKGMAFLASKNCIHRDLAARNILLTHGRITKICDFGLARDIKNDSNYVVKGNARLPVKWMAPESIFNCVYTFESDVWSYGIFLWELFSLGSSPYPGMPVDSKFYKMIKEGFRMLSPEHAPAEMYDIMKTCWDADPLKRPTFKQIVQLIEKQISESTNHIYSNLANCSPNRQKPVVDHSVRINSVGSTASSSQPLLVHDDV
In words: Competition reaction with dasatinib-magnetic substance for EGFP-labelled kinase in cells. Type of test: cell-based. The conditions noted are these: KIT-EGFP in HeLa cells; 10 μM reactive competitor for 30 minutes to 2 hours.

For test [11], the target named is T4, CSK. Nature of the test: Binding of dasatinib-magnetic substance to EGFP-labelled kinase in cells (magnetic pattern co-localization). The conditions noted are these: CSK-EGFP in HeLa cells; dasatinib-biotin coated on streptavidin magnetic substance; magnetic field.
For test [12], the target named is T5, SNF1LK. Nature of the test: Competition reaction with dasatinib-magnetic substance for EGFP-labelled kinase in cells. In kind it is cell-based. The conditions noted are these: SNF1LK-EGFP in HeLa cells; 10 μM reactive competitor for 30 minutes to 2 hours.
The target of test [13] is T6, FGR. In words: Binding of dasatinib-magnetic substance to EGFP-labelled kinase in cells (magnetic pattern co-localization). The following applies: FGR-EGFP (G2A) in HeLa cells; dasatinib-biotin coated on streptavidin magnetic substance; magnetic field.
The target of test [14] is T1, LYN. In words: Competition reaction with dasatinib-magnetic substance for EGFP-labelled kinase in cells. In kind it is cell-based. The conditions noted are these: LYN-EGFP in HeLa cells; 10 μM reactive competitor for 30 minutes to 2 hours.
The target of test [15] is T8, MAPK14 (Homo sapiens, UniProt Q16539). In words: Binding of dasatinib-magnetic substance to EGFP-labelled kinase in cells (magnetic pattern co-localization). The conditions noted are these: MAPK14-EGFP in HeLa cells; dasatinib on magnetic substance; no reactive competitor.
T8 sequence (Q16539 1-360 isoform Q16539-2): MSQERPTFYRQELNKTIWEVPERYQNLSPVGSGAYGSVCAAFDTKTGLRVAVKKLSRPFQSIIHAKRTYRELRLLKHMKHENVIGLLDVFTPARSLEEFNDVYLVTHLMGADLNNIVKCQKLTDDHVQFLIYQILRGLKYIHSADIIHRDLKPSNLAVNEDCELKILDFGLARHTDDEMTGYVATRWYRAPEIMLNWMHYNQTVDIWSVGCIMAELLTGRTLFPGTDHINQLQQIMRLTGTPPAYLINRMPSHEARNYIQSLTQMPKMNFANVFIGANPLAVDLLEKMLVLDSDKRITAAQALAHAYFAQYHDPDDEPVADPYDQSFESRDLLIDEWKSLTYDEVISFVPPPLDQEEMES
Test [16] has as its target T8, MAPK14. In words: Competition reaction with dasatinib-magnetic substance for EGFP-labelled kinase in cells. The following applies: MAPK14-EGFP in HeLa cells; 10 μM reactive competitor for 30 minutes to 2 hours.

T1 sequence (P07948 1-491 isoform P07948-2 G2A): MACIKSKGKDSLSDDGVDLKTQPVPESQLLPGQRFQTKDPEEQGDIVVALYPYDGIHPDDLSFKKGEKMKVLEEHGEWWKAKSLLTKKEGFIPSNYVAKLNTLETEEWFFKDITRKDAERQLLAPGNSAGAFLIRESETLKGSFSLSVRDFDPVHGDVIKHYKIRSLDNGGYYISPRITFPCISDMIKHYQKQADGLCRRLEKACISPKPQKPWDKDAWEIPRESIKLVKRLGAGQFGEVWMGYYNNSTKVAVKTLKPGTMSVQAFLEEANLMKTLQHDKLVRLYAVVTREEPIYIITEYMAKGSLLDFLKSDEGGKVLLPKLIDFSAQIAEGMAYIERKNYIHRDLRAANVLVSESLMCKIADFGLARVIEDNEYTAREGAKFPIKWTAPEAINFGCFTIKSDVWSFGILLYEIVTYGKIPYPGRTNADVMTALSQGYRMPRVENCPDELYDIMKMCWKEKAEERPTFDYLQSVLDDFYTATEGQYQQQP
T3 sequence (P51451 whole entry G2A): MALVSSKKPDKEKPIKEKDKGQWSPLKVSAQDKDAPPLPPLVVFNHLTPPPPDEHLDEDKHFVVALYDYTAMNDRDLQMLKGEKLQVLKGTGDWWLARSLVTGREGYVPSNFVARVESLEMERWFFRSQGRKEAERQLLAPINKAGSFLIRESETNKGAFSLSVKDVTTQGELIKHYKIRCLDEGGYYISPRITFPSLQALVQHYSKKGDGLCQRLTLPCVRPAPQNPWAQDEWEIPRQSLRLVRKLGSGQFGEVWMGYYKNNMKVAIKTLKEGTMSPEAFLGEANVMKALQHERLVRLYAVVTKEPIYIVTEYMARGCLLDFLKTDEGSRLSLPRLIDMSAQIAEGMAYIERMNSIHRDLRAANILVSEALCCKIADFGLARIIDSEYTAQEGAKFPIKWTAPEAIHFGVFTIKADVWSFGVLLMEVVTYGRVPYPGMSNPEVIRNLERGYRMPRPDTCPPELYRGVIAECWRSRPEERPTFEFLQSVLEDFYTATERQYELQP

For the compound `Cc1nc(Nc2ncc(C(=O)Nc3c(C)cccc3Cl)s2)cc(N2CCN(CCO)CC2)n1` [dasatinib, N-(2-chloro-6-methyl-phenyl)-2-(6-(4-(2-hydroxyethyl)-piperazin-1-yl)-2-methylpyrimidin-4-ylamino)thiazole-5-carboxamide], the “competition with dasatinib-magnetic substance: fluorescent pattern overlapped with magnetization pattern” value (from here on “competition”) in the test with ABL2 [1], on CSK [5], on RIPK2 [6], on BLK [7], on FGR [9] and on KIT was “fluorescent pattern overlapped with an induced magnetization pattern of the magnetic substances was not observed” throughout. Moreover, the “competition” value on SNF1LK [12], on LYN [14] and on MAPK14 [16] was “fluorescent pattern overlapped with an induced magnetization pattern of the magnetic substances was not observed” in each case. The “fluorescent pattern of kinase-EGFP overlapped with magnetization pattern (binding)” value was “showed the fluorescent patterns aligned in a magnetized direction” on LYN [2]; “showed the fluorescent patterns aligned in a magnetized direction” at RIPK2 [3]; “showed the fluorescent patterns aligned in a magnetized direction” on BLK [4]; “interacted” at SNF1LK [8]; “showed the fluorescent patterns aligned in a magnetized direction” in the test with ABL2 [10]; “showed the fluorescent patterns aligned in a magnetized direction” on CSK [11]. Besides, the results for the “fluorescent pattern of kinase-EGFP overlapped with magnetization pattern (binding)” value at FGR [13] and at MAPK14 [15] were “showed the fluorescent patterns aligned in a magnetized direction” and “interacted”, respectively.

For the compound `Cc1ccc(NC(=O)c2ccc(CN3CCN(C)CC3)cc2)cc1Nc1nccc(-c2cccnc2)n1` [imatinib], the “competition” value on KIT is “interacts”.
